From the SangsterLogP compilation come the findings set out here.

The structures appear in SMILES notation.

Broadly, the logD is lipophilicity at a set pH, counting ionised and neutral species.

The data set in a line: method code SF, from DOI: 10.1021/jm101405t, PMID: 21319751. The conditions noted are these: pH 7.4.
Compound `OCCc1ccc(OCc2cccc(-c3nccs3)c2)cc1` gave a logD of 2.11.

As to `OCCc1ccc(OCc2cccc(-c3ccccn3)c2)cc1`, the logD is 1.94.

The compound `OCCc1ccc(OCc2cccc(-c3ccccc3)c2)cc1` displayed a logD of 3.37.

With `OCCc1ccc(OCc2ccccc2-c2ccccc2)cc1`, the logD amounted to 3.25. This logD and that of the compound before are within 0.2 log units of each other.

Turning to `OCCc1ccc(OCc2cccc(-c3cccs3)c2)cc1`, the logD amounted to 3.22.

`OCCc1ccc(OCc2ccccc2)cc1` displayed a logD of 1.96.

In turn, `OCCc1ccc(-c2cccc(OCCc3ccccc3)c2)cc1` gave a logD of 3.63.

Consider `OCCc1ccc(OCc2ccccc2Oc2ccccc2)cc1`, for which the logD is 3.32.

As for `OCCc1ccc(OCc2ccc(-c3ccccc3)cc2)cc1`, the logD is 3.41. This logD and that of the compound before are within 0.2 log units of each other.
